These are literature values, as cited in patent US20240091148A1, “EUTECTIC SOLVENTS COMPRISING PHARMACEUTICAL AGENTS, AND METHODS OF MAKING AND USE THEREOF” (Novilla Pharmaceuticals, Inc., priority 2018, published 2024).

The conditions of this data set: values stated in the description, no method or source given.
Consider `CCCC1O[C@@H]2C[C@H]3[C@@H]4CCC5=CC(=O)C=C[C@]5(C)[C@H]4[C@@H](O)C[C@]3(C)[C@]2(C(=O)CO)O1` (stereo partly drawn) [budesonide], for which the pKa was 13-15.
`CN(C)CCOC(C)(c1ccccc1)c1ccccn1` (stereo not drawn) [doxylamine]: the pKa is reported as 8.7-9.2.
Turning to `CC(C)C(=O)OCC(=O)[C@@]12O[C@H](C3CCCCC3)O[C@@H]1C[C@H]1[C@@H]3CCC4=CC(=O)C=C[C@]4(C)[C@H]3[C@@H](O)C[C@@]12C` [ciclesonide], the pKa is on record as 14-16.
As for `C[C@@H]1C[C@H]2[C@@H]3CCC4=CC(=O)C=C[C@]4(C)[C@@]3(Cl)[C@@H](O)C[C@]2(C)[C@@]1(O)C(=O)CCl` [mometasone], the pKa is 12-13.
With `C[C@@H]1C[C@H]2[C@@H]3C[C@H](F)C4=CC(=O)C=C[C@]4(C)[C@@]3(F)[C@@H](O)C[C@]2(C)[C@@]1(O)C(=O)SCF` [fluticasone], the pKa was 12-14.
`C[C@H]1C[C@H]2[C@@H]3CCC4=CC(=O)C=C[C@]4(C)[C@@]3(Cl)[C@@H](O)C[C@]2(C)[C@@]1(O)C(=O)CO` [beclomethasone]: the pKa is 13-16.
